# US20170008888A1 (KYORIN PHARMACEUTICAL CO., LTD., priority 2014, published 2017)
# Marks after values point to notes of the source that are not given here.
# What was measured:
# [1] = test system: Asthmatic lung fibroblasts; experiment: TGF-β-induced fibrotic response (α-SMA expression) in asthmatic lung fibroblasts; format: cell-based; conditions: Homo sapiens, Fibroblast; 2 ng/ml TGF-β1, 48 h; Western blot; read-out: Inhibition of α-SMA expression, EC50 (μM), Asthmatic lung fibroblasts
# Procedure: Nontransformed, human fetal lung fibroblasts (HFL-1) were obtained from ATCC (Manassas, Va.) and maintained in F12K media containing 10% (v/v) charcoal-dextran treated, heat inactivated FBS (Omega Scientific, Tarzana, Calif.). Primary lung fibroblasts isolated from a patient diagnosed with asthma were obtained from Lonza (Allendale, N.J.) and maintained in FGM-2 fibroblast growth medium (Lonza). Cells were seeded at a density to provide 50-60% confluence after an overnight incubation at 37° C. in a humidified atmosphere at 5% CO2. […] Protein content was determined using the Bio-Rad Dc Protein kit (Bio-Rad Laboratories, Hercules, Calif.), and normalized prior to adding an equal volume of 2× Laemmli sample buffer (Sigma). Proteins in the whole cell lysates were resolved via SDS-PAGE gel electrophoresis, and α-SMA was detected via Western blot analysis using a rabbit anti-human α-SMA polyclonal antibody (Abcam, Cambridge, Mass.). α-SMA signal was normalized to the signal of β-actin as detected using mouse anti-human […] antibody (Cell Signaling Technology). DyLight 680 and 800 conjugated secondary antibodies were used and the infrared signals were detected using the Odyssey Imaging System (LI-COR Biotechnology, Lincoln, Nebr.).
# [2] = test system: Imiquimod-induced psoriasis mouse model; experiment: Imiquimod (IMQ)-induced acute model of psoriasis in mouse: skin thickness, erythema, scaling; format: in vivo, mouse (Balb/c)
# Procedure: Material and methods for the IMQ study were adapted from van der Fits et al. J Immunol., 2009, 182: 5836-5845. Eight week old male Balb/c mice (Harlan) received a daily topical dose of 62.5 mg 5% IMQ cream (Aldara™, Medicis) equivalent to 3.125 mg IMQ, on the shaved back (approximately 2×3.5 cm patch) and dorsal surface of the right ear for 6 consecutive days. Sham control mice were treated similarly with control cream (Hydrous Emulsified Base, HEB, Cream, Fagron). Treatments were administered by group as indicated in Table 1 below prior to daily application of IMQ (QD and morning dose of BID regimens), n=10 for all groups. […] Body weights and scoring of induced clinical disease were performed after dosing (Days 1-7) but prior to IMQ application (Days 1-6) on Days 1 (baseline), 3, 4, 6, 8. Mice were sacrificed on Day 8 and treated back skin tissue collected and divided for fixation for histopathology (a 12 mm punch in mid-back) the remainder flash frozen; right (IMQ) and left (control) ears, spleen (after wet weight) and lung were also individually collected and flash frozen, and stored at −70° C. for subsequent biochemical analyses. Statistics were performed using one-way ANOVA with Dunnett's post-hoc test comparing treated groups to the vehicle group, using InStat software (GraphPad, La Jolla, Calif.).
# The severity of clinical disease was assessed by
# 1) skin thickness dial gauge micrometer measurements (duplicate) of the ears and the dorsal skin at the midline of the back (equal to double true measure of dorsal skin thickness)
# 2) erythema and scaling, independently scored on a scale from 0-4: 0=none, 1=slight, 2=moderate, 3=marked, 4=very marked with intermediate increments of 0.5 allowed.
# Clinical disease assessments included erythema, scaling, skin thickness and cumulative disease severity scores and the change in skin thickness of the ears and dorsal back skin over time compared to baseline measurements (Tables 19 and 20). Body weights of the mice were measured at baseline and at end of study, and there were no significant changes in weight in any treatment group during the study (data not shown).
# BRD2 = target: T1, BRD2 (Homo sapiens, UniProt P25440); experiment: Bromodomain binding assay: BRD2
# T1 construct: read out by qPCR of the phage DNA
# Procedure: T7 phage strains displaying bromodomains were grown in parallel in 24-well blocks in an E. coli host derived from the BL21 strain. E. coli were grown to log-phase and infected with T7 phage from a frozen stock (multiplicity of infection=0.4) and incubated with shaking at 32° C. until lysis (90-150 minutes). The lysates were centrifuged (5,000×g) and filtered (0.2 μm) to remove cell debris. […] The liganded beads were blocked with excess biotin and washed with blocking buffer (SeaBlock (Pierce), 1% BSA, 0.05 Tween 20, 1 mM DTT) to remove unbound ligand and to reduce non-specific phage binding. […] Test compounds (T62 and 46) were prepared as 1000× stocks in 100% DMSO and subsequently diluted 1:10 in monoethylene glycol (MEG) to create stocks at 100× the screening concentration (resulting stock solution is 10% DMSO/90% MEG). The compounds were then diluted directly into the assays such that the final concentration of DMSO and MEG were 0.1% and 0.9%, respectively. All reactions were performed in polystyrene 96-well plates in a final volume of 0.135 ml. […] The bromodomain concentration in the eluates was measured by qPCR. Compounds were assayed for binding activity against a panel of 40 bromodomain-containing proteins.
# T1 sequence (P25440 whole entry): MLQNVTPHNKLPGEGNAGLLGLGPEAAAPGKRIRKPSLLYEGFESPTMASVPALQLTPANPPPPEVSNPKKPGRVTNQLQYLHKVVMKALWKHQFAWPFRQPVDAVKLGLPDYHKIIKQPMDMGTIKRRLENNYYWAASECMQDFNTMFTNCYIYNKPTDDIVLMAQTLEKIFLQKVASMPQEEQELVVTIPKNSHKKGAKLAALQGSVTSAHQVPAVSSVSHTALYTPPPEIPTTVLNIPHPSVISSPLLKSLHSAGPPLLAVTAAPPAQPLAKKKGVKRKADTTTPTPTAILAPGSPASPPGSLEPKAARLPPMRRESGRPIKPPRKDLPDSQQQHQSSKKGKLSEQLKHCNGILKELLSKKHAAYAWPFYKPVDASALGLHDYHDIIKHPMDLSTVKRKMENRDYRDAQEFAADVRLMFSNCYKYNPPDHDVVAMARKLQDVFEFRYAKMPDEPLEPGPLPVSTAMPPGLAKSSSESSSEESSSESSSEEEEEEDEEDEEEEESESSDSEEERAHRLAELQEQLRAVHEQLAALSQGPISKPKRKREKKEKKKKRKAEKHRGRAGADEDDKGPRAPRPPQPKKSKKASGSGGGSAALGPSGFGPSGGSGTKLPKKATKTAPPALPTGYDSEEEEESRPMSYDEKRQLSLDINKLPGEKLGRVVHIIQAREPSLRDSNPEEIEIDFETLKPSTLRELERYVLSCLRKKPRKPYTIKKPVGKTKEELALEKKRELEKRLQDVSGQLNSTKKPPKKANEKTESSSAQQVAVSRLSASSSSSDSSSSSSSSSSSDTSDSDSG
smiles,measurement,setting,value
CCOc1cc(C(=O)N2CCC(N3CCN(C)CC3)CC2)ccc1Nc1cc2c(cn1)N(C)C(=O)c1ccccc1N2C [Compound 61],EC50,[1],3.69 µM
"CCOc1cc(C(=O)N2CCC(N3CCCC3)CC2)ccc1Nc1cc2c(cn1)N(C)C(=O)c1ccccc1N2C [Compound 46, 3-(2-Ethoxy-4-(4-(pyrrolidin-1-yl)piperidine-1-carbonyl)phenylamino)-5,11-dimethyl-5H-benzo[e]pyrido[3,4-b][1,4]diazepin-10(11H)-one]","Clinical Score Erythema (0-4), AVG Score","[2]; Day 1 (baseline), 60 mpk BID",0
same,"Clinical Score Scaling (0-4), AVG Score","[2]; Day 1 (baseline), 60 mpk BID",0
same,"Clinical Score Erythema (0-4), AVG Score","[2]; Day 1 (baseline), 60 mpk QD",0
same,"Clinical Score Scaling (0-4), AVG Score","[2]; Day 1 (baseline), 60 mpk QD",0
same,"% Mean DORSAL BACK THICKNESS versus day 1, AVG","[2]; Day 3, 25 mpk BID",29.55%
same,"% Mean LEFT EAR THICKNESS [Control] versus day 1, AVG","[2]; Day 3, 25 mpk BID",−7.42%
same,"% Mean RIGHT EAR THICKNESS [IMQ] versus day 1, AVG","[2]; Day 3, 25 mpk BID",6.71%
same,"% Mean DORSAL BACK THICKNESS versus day 1, AVG","[2]; Day 3, 60 mpk BID",34.79%
same,"% Mean LEFT EAR THICKNESS [Control] versus day 1, AVG","[2]; Day 3, 60 mpk BID",−8.07%
same,"% Mean RIGHT EAR THICKNESS [IMQ] versus day 1, AVG","[2]; Day 3, 60 mpk BID",3.35%
same,"Clinical Score Erythema (0-4), AVG Score","[2]; Day 3, 60 mpk BID",1.15
same,"Clinical Score Scaling (0-4), AVG Score","[2]; Day 3, 60 mpk BID",0.5
same,"% Mean DORSAL BACK THICKNESS versus day 1, AVG","[2]; Day 3, 60 mpk QD",41.12%
same,"% Mean LEFT EAR THICKNESS [Control] versus day 1, AVG","[2]; Day 3, 60 mpk QD",−8.74%
same,"% Mean RIGHT EAR THICKNESS [IMQ] versus day 1, AVG","[2]; Day 3, 60 mpk QD",3.71%
same,"Clinical Score Erythema (0-4), AVG Score","[2]; Day 3, 60 mpk QD",1.05
same,"Clinical Score Scaling (0-4), AVG Score","[2]; Day 3, 60 mpk QD",0.5
same,"% Mean DORSAL BACK THICKNESS versus day 1, AVG","[2]; Day 4, 25 mpk BID",43.62%
same,"% Mean LEFT EAR THICKNESS [Control] versus day 1, AVG","[2]; Day 4, 25 mpk BID",−5.56%
same,"% Mean RIGHT EAR THICKNESS [IMQ] versus day 1, AVG","[2]; Day 4, 25 mpk BID",12.03%
same,"% Mean DORSAL BACK THICKNESS versus day 1, AVG","[2]; Day 4, 60 mpk BID",45.39%
same,"% Mean LEFT EAR THICKNESS [Control] versus day 1, AVG","[2]; Day 4, 60 mpk BID",−3.95%
same,"% Mean RIGHT EAR THICKNESS [IMQ] versus day 1, AVG","[2]; Day 4, 60 mpk BID",11.25%
same,"Clinical Score Erythema (0-4), AVG Score","[2]; Day 4, 60 mpk BID",1.3
same,"Clinical Score Scaling (0-4), AVG Score","[2]; Day 4, 60 mpk BID",0.55
same,"% Mean DORSAL BACK THICKNESS versus day 1, AVG","[2]; Day 4, 60 mpk QD",54.57%
same,"% Mean LEFT EAR THICKNESS [Control] versus day 1, AVG","[2]; Day 4, 60 mpk QD",−7.01%
same,"% Mean RIGHT EAR THICKNESS [IMQ] versus day 1, AVG","[2]; Day 4, 60 mpk QD",9.53%
same,"Clinical Score Erythema (0-4), AVG Score","[2]; Day 4, 60 mpk QD",1.3
same,"Clinical Score Scaling (0-4), AVG Score","[2]; Day 4, 60 mpk QD",0.6
same,"% Mean DORSAL BACK THICKNESS versus day 1, AVG","[2]; Day 6, 25 mpk BID",84.46* %
same,"% Mean LEFT EAR THICKNESS [Control] versus day 1, AVG","[2]; Day 6, 25 mpk BID",−1.35%
same,"% Mean RIGHT EAR THICKNESS [IMQ] versus day 1, AVG","[2]; Day 6, 25 mpk BID",37.60* %
same,"% Mean DORSAL BACK THICKNESS versus day 1, AVG","[2]; Day 6, 60 mpk BID",72.41** %
same,"% Mean LEFT EAR THICKNESS [Control] versus day 1, AVG","[2]; Day 6, 60 mpk BID",1.37%
same,"% Mean RIGHT EAR THICKNESS [IMQ] versus day 1, AVG","[2]; Day 6, 60 mpk BID",33.34** %
same,"Clinical Score Erythema (0-4), AVG Score","[2]; Day 6, 60 mpk BID",1.65
same,"Clinical Score Scaling (0-4), AVG Score","[2]; Day 6, 60 mpk BID",2.55
same,"% Mean DORSAL BACK THICKNESS versus day 1, AVG","[2]; Day 6, 60 mpk QD",90.77^NS %
same,"% Mean LEFT EAR THICKNESS [Control] versus day 1, AVG","[2]; Day 6, 60 mpk QD",8.65%
same,"% Mean RIGHT EAR THICKNESS [IMQ] versus day 1, AVG","[2]; Day 6, 60 mpk QD",38.11* %
same,"Clinical Score Erythema (0-4), AVG Score","[2]; Day 6, 60 mpk QD",2.25
same,"Clinical Score Scaling (0-4), AVG Score","[2]; Day 6, 60 mpk QD",3.05
same,"% Mean DORSAL BACK THICKNESS versus day 1, AVG","[2]; Day 8, 25 mpk BID",46.07^NS %
same,"% Mean LEFT EAR THICKNESS [Control] versus day 1, AVG","[2]; Day 8, 25 mpk BID",−3.26%
same,"% Mean RIGHT EAR THICKNESS [IMQ] versus day 1, AVG","[2]; Day 8, 25 mpk BID",43.36** %
same,"% Mean DORSAL BACK THICKNESS versus day 1, AVG","[2]; Day 8, 60 mpk BID",41.36^NS %
same,"% Mean LEFT EAR THICKNESS [Control] versus day 1, AVG","[2]; Day 8, 60 mpk BID",−1.92%
same,"% Mean RIGHT EAR THICKNESS [IMQ] versus day 1, AVG","[2]; Day 8, 60 mpk BID",40.66** %
same,"Clinical Score Erythema (0-4), AVG Score","[2]; Day 8, 60 mpk BID",1.3
same,"Clinical Score Scaling (0-4), AVG Score","[2]; Day 8, 60 mpk BID",1.45
same,"% Mean DORSAL BACK THICKNESS versus day 1, AVG","[2]; Day 8, 60 mpk QD",45.99^NS %
same,"% Mean LEFT EAR THICKNESS [Control] versus day 1, AVG","[2]; Day 8, 60 mpk QD",0.14%
same,"% Mean RIGHT EAR THICKNESS [IMQ] versus day 1, AVG","[2]; Day 8, 60 mpk QD",48.04** %
same,"Clinical Score Erythema (0-4), AVG Score","[2]; Day 8, 60 mpk QD",1.1
same,"Clinical Score Scaling (0-4), AVG Score","[2]; Day 8, 60 mpk QD",1.7
same,Kd,BRD2,55 nM
